US20250152751A1, “RED-SHIFTED FLUOROPHORES AND METHODS OF USING THE SAME” (GEORGIA STATE UNIVERSITY RESEARCH FOUNDATION, INC., priority 2022, published 2025)

What was measured:
[1] = Optical properties of the fluorophores measured in ethanol, compared to ICG; assay type: physicochemical; settings: for Φ^a (%): compared to ICG
Summary of the method: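 Optical properties of the fluorophores were measured in ethanol and compared with a reference dye. Read-outs were absorption maximum, emission maximum, Stokes shift, quantum yield and molar extinction coefficient. The text gives no concentrations, instrument, temperature, replicates or derivation method.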

[2] = Solvatochromism: absorption maximum in different solvents; assay type: physicochemical

Row | Stokes Shift (nm) [1] | λabs (nm) [1] | λem (nm) [1] | ϵ (cm^−1 M^−1) [1] | Φ^a (%) [1] | λabs (nm) Acetonitrile [2] | λabs (nm) DMSO [2] | λabs (nm) Ethanol [2] | λabs (nm) Methanol [2] | Structure (SMILES)
1 | 11 nm | 790 nm | 801 nm | 136,500 cm^−1 M^−1 | 11.7% |  |  |  |  | CCN1C(=CC=C2CC(c3ccccc3)CC(C=C(C#N)C(=O)O)=C2Cl)C(C)(C)c2cc(Cl)ccc21 (stereo not drawn) [Compound 69]
2 | 17 nm | 780 nm | 797 nm | 144,100 cm^−1 M^−1 | 12.1% |  |  |  |  | CCN1C(=CC=C2CCCC(C=C(C#N)C#N)=C2Cl)C(C)(C)c2ccccc21 [Compound 71]
3 | 15 nm | 785 nm | 800 nm | 143,900 cm^−1 M^−1 | 12.1% |  |  |  |  | CCCCN1C(=CC=C2CCCC(C=C(C#N)C#N)=C2Cl)C(C)(C)c2ccccc21 [Compound 72]
4 | 17 nm | 785 nm | 802 nm | 168,800 cm^−1 M^−1 | 12.2% |  |  |  |  | CCCCN1C(=CC=C2CCCC(C=C(C#N)C#N)=C2Cl)C(C)(C)c2cc(F)ccc21 [Compound 73]
5 | 19 nm | 790 nm | 809 nm | 152,300 cm^−1 M^−1 | 11.3% | 790 nm | 800 nm | 790 nm | 785 nm | CCN1C(=CC=C2CCCC(C=C(C#N)C#N)=C2Cl)C(C)(C)c2cc(Br)ccc21 [Compound 74]
6 | 15 nm | 790 nm | 805 nm | 145,400 cm^−1 M^−1 | 11.5% |  |  |  |  | CCN1C(=CC=C2CCCC(C=C(C#N)C#N)=C2Cl)C(C)(C)c2cc(Cl)ccc21 [Compound 75]
7 | 6 nm | 820 nm | 826 nm | 146,400 cm^−1 M^−1 | 8.8% | 820 nm | 835 nm | 820 nm | 820 nm | CCCCN1/C(=C/C=C2\CCCC(C=C(C#N)C#N)=C2Cl)C(C)(C)c2c1ccc1ccccc21 [Compound 76]
8 | 15 nm | 800 nm | 815 nm | 134,400 cm^−1 M^−1 | 11.5% | 790 nm | 810 nm | 800 nm | 795 nm | CCN1C(=CC=C2CCCC(C=C(C#N)C(=O)O)=C2Sc2ccncc2)C(C)(C)c2ccccc21 [Compound 77]
9 | 126 nm | 665 nm | 791 nm | 64,200 cm^−1 M^−1 | 18.3% |  |  |  |  | CN1C(=CC=C2CCCC(C=C(C#N)C(=O)O)=C2N2CCC(CO)CC2)C(C)(C)c2cc(Br)ccc21 [Compound 81]
10 | 122 nm | 670 nm | 792 nm | 75,300 cm^−1 M^−1 | 17.4% |  |  |  |  | CCN1C(=CC=C2CCCC(C=C(C#N)C(=O)O)=C2N2CCC(CO)CC2)C(C)(C)c2cc(Cl)ccc21 [Compound 83]
11 | 143 nm | 645 nm | 788 nm | 60,000 cm^−1 M^−1 | 19.9% |  |  |  |  | CCN1C(=CC=C2CC(C(C)(C)C)CC(C=C(C#N)C(=O)O)=C2N2CCC(CO)CC2)C(C)(C)c2cc(Cl)ccc21 (stereo not drawn) [Compound 85]

The remaining lines, values behind:

Row | Structure (SMILES) | Stokes Shift (nm) [1] | λabs (nm) [1] | λem (nm) [1] | ϵ (cm^−1 M^−1) [1] | Φ^a (%) [1] | λabs (nm) Acetonitrile [2] | λabs (nm) DMSO [2] | λabs (nm) Ethanol [2] | λabs (nm) Methanol [2]
12 | CCN1C(=CC=C2CCCC(C=C(C#N)C(=O)O)=C2Cl)C(C)(C)c2ccccc21 [Compound 47] | 20 nm | 780 nm | 800 nm | 179,500 cm^−1 M^−1 | 12.3% |  |  |  | 
13 | CCCCN1C(=CC=C2CCCC(C=C(C#N)C(=O)O)=C2Cl)C(C)(C)c2ccccc21 [Compound 48] | 17 nm | 785 nm | 802 nm | 181,400 cm^−1 M^−1 | 12.1% |  |  |  | 
14 | CN1C(=CC=C2CCCC(C=C(C#N)C(=O)O)=C2Cl)C(C)(C)c2cc(F)ccc21 [Compound 49] | 15 nm | 780 nm | 795 nm | 195,100 cm^−1 M^−1 | 12.6% |  |  |  | 
15 | CCN1C(=CC=C2CCCC(C=C(C#N)C(=O)O)=C2Cl)C(C)(C)c2cc(F)ccc21 [Compound 50] | 14 nm | 780 nm | 799 nm | 165,300 cm^−1 M^−1 | 12.2% |  |  |  | 
16 | CCCCN1C(=CC=C2CCCC(C=C(C#N)C(=O)O)=C2Cl)C(C)(C)c2cc(F)ccc21 [Compound 51] | 17 nm | 785 nm | 802 nm | 176,400 cm^−1 M^−1 | 11.9% |  |  |  | 
17 | CN1C(=CC=C2CCCC(C=C(C#N)C(=O)O)=C2Cl)C(C)(C)c2cc(Br)ccc21 [Compound 52] | 16 nm | 790 nm | 806 nm | 153,600 cm^−1 M^−1 | 11.8% |  |  |  | 
18 | CCN1C(=CC=C2CCCC(C=C(C#N)C(=O)O)=C2Cl)C(C)(C)c2cc(Br)ccc21 [Compound 53] | 17 nm | 790 nm | 807 nm | 171,000 cm^−1 M^−1 | 11.8% |  |  |  | 
19 | CCN1C(=CC=C2CCCC(C=C(C#N)C(=O)O)=C2Cl)C(C)(C)c2cc(Cl)ccc21 [Compound 54] | 15 nm | 790 nm | 805 nm | 156,500 cm^−1 M^−1 | 12.0% |  |  |  | 
20 | CCCCN1C(=CC=C2CCCC(C=C(C#N)C(=O)O)=C2Cl)C(C)(C)c2cc(Cl)ccc21 [Compound 55] | 13 nm | 795 nm | 808 nm | 115,500 cm^−1 M^−1 | 11.5% |  |  |  | 
21 | CCCCN1/C(=C/C=C2\CCCC(/C=C(\C#N)C(=O)O)=C2Cl)C(C)(C)c2c1ccc1ccccc21 [Compound 56] | 7 nm | 820 nm | 827 nm | 151,100 cm^−1 M^−1 | 9.6% |  |  |  | 
22 | CCCCN1/C(=C/C=C2\CCCC(/C=C(\C#N)C(=O)O)=C2Cl)Sc2ccccc21 [Compound 57] | 14 nm | 800 nm | 814 nm | 198,700 cm^−1 M^−1 | 10.5% |  |  |  | 
23 | CCN1C(=CC=C2CC(C(C)(C)C)CC(C=C(C#N)C(=O)O)=C2Cl)C(C)(C)c2ccccc21 (stereo not drawn) [Compound 58] | 17 nm | 780 nm | 797 nm | 138,200 cm^−1 M^−1 | 12.7% |  |  |  | 
24 | CCN1C(=CC=C2CC(C(C)(C)C)CC(C=C(C#N)C(=O)O)=C2Cl)C(C)(C)c2cc(F)ccc21 (stereo not drawn) [Compound 59] | 19 nm | 780 nm | 799 nm | 123,000 cm^−1 M^−1 | 12.5% |  |  |  | 
25 | CCCCN1C(=CC=C2CC(C(C)(C)C)CC(C=C(C#N)C(=O)O)=C2Cl)C(C)(C)c2cc(F)ccc21 (stereo not drawn) [Compound 60] | 18 nm | 785 nm | 803 nm | 137,400 cm^−1 M^−1 | 12.6% |  |  |  | 
26 | CCN1C(=CC=C2CC(C(C)(C)C)CC(C=C(C#N)C(=O)O)=C2Cl)C(C)(C)c2cc(Br)ccc21 (stereo not drawn) [Compound 61] | 15 nm | 790 nm | 805 nm | 123,500 cm^−1 M^−1 | 11.4% |  |  |  | 
27 | CCN1C(=CC=C2CC(C(C)(C)C)CC(C=C(C#N)C(=O)O)=C2Cl)C(C)(C)c2cc(Cl)ccc21 (stereo not drawn) [Compound 62] | 15 nm | 790 nm | 805 nm | 114,100 cm^−1 M^−1 | 11.5% |  |  |  | 
28 | CN1C(=CC=C2CC(C(C)(C)C)CC(C=C(C#N)C(=O)O)=C2Cl)C(C)(C)c2c1ccc1ccccc21 (stereo not drawn) [Compound 63] | 6 nm | 815 nm | 821 nm | 167,100 cm^−1 M^−1 | 9.8% |  |  |  | 
29 | CCCCN1C(=CC=C2CC(C(C)(C)C)CC(C=C(C#N)C(=O)O)=C2Cl)C(C)(C)c2c1ccc1ccccc21 (stereo not drawn) [Compound 64] | 8 nm | 820 nm | 828 nm | 146,300 cm^−1 M^−1 | 7.3% |  |  |  | 
30 | CCCCN1/C(=C/C=C2\CC(C(C)(C)C)CC(/C=C(\C#N)C(=O)O)=C2Cl)Sc2ccccc21 (stereo not drawn) [Compound 65] | 12 nm | 800 nm | 812 nm | 192,000 cm^−1 M^−1 | 10.5% |  |  |  | 
31 | CCN1C(=CC=C2CC(c3ccccc3)CC(C=C(C#N)C(=O)O)=C2Cl)C(C)(C)c2ccccc21 (stereo not drawn) [Compound 66] | 15 nm | 780 nm | 795 nm | 155,700 cm^−1 M^−1 | 12.4% |  |  |  | 
32 | CCN1C(=CC=C2CC(c3ccccc3)CC(C=C(C#N)C(=O)O)=C2Cl)C(C)(C)c2cc(F)ccc21 (stereo not drawn) [Compound 67] | 16 nm | 780 nm | 796 nm | 124,700 cm^−1 M^−1 | 12.3% |  |  |  | 
33 | CCN1C(=CC=C2CC(c3ccccc3)CC(C=C(C#N)C(=O)O)=C2Cl)C(C)(C)c2cc(Br)ccc21 (stereo not drawn) [Compound 68] | 15 nm | 790 nm | 805 nm | 167,800 cm^−1 M^−1 | 12.1% |  |  |  | 
